From article PMC8566089 (Bioorganic Chemistry, 2021)

Experiments:
[1] = test system: SARS-CoV-2 (hCoV-19/Egypt/NRC-03/2020); settings: SARS-CoV-2 / VERO-E6
[2] = test system: A431 (squamous skin) cancer cell line; assay: MTT antiproliferative assay, A431; format: cell-based; settings: for IC50: Homo sapiens, A-431, 72 h, read-out: IC50 ± SE, A431; for SI (selectivity index), A431: IC50 of RPE1 relative to that of A431
[3] = test system: MCF7 (breast) cancer cell line; assay: MTT antiproliferative assay, MCF7; format: cell-based; settings: for IC50: Homo sapiens, MCF7, 72 h, read-out: IC50 ± SE, MCF7; for SI (selectivity index), MCF7: IC50 of RPE1 relative to that of MCF7
[4] = test system: HCT116 (colon) cancer cell line; assay: MTT antiproliferative assay, HCT116; format: cell-based; settings: for IC50: Homo sapiens, HCT-116, 72 h, read-out: IC50 ± SE, HCT116; for SI (selectivity index), HCT116: IC50 of RPE1 relative to that of HCT116
[5] = test system: RPE1 (normal human immortalized retinal pigment epithelial cell line); assay: MTT assay against normal RPE1 cells; format: cell-based; settings: RPE-1, read-out: IC50 ± SE, RPE1
[6] = target: T1, VEGFR-2 (Homo sapiens, UniProt P35968); assay: VEGFR-2 Western blot in MCF7; format: cell-based; settings: for VEGFR2 MCF7 % Inhibition: Western blot at MTT-IC50; for VEGFR2 MCF7 RQ (relative quantification): Western blot at MTT-IC50, control RQ 3.725
T1 sequence (P35968 20-1356): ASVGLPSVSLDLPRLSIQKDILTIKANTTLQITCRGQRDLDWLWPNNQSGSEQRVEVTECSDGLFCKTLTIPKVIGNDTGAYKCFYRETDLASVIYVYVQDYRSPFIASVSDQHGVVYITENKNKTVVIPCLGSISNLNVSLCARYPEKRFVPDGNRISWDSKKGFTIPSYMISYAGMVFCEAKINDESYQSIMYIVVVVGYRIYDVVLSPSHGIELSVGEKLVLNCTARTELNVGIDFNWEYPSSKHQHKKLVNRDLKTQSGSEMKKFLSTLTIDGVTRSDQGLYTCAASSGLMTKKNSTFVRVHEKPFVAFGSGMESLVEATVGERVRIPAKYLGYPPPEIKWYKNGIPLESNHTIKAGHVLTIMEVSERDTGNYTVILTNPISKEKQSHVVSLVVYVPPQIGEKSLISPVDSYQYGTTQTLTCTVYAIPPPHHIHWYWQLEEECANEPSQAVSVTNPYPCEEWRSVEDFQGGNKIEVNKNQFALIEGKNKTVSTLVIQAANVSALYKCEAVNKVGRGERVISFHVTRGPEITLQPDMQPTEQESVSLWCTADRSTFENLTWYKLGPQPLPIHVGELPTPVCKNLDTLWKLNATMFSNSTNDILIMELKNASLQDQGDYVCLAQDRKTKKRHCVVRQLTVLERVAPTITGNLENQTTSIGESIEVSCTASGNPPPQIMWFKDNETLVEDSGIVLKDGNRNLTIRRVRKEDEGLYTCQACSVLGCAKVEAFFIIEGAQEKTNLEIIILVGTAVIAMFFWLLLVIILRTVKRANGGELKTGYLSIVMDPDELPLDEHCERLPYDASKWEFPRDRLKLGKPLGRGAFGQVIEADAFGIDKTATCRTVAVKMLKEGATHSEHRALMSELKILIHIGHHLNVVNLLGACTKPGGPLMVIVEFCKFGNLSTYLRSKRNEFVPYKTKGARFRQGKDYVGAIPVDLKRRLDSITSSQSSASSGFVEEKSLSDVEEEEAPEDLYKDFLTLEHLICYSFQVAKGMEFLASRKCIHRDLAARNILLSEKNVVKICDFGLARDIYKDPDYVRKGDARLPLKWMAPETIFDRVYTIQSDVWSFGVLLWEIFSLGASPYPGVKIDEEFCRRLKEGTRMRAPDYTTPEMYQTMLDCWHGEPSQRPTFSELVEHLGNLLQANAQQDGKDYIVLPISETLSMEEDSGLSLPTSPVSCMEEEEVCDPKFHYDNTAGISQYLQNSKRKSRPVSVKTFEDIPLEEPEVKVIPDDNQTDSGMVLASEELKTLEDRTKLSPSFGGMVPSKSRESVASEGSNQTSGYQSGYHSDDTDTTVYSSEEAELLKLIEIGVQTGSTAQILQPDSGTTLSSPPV

[7] = target: T1, VEGFR-2; assay: VEGFR-2 Western blot in HCT116; format: cell-based; settings: for VEGFR2 HCT116 % Inhibition: Western blot at MTT-IC50; for VEGFR2 HCT116 RQ (relative quantification): Western blot at MTT-IC50, control RQ 3.817
[8] = target: T2, EGFR (Homo sapiens, UniProt P00533); assay: EGFR Western blot in MCF7; format: cell-based; settings: for EGFR MCF7 % Inhibition: Western blot at MTT-IC50; for EGFR MCF7 RQ (relative quantification): Western blot at MTT-IC50, control RQ 4.226
T2 sequence (P00533 25-1210): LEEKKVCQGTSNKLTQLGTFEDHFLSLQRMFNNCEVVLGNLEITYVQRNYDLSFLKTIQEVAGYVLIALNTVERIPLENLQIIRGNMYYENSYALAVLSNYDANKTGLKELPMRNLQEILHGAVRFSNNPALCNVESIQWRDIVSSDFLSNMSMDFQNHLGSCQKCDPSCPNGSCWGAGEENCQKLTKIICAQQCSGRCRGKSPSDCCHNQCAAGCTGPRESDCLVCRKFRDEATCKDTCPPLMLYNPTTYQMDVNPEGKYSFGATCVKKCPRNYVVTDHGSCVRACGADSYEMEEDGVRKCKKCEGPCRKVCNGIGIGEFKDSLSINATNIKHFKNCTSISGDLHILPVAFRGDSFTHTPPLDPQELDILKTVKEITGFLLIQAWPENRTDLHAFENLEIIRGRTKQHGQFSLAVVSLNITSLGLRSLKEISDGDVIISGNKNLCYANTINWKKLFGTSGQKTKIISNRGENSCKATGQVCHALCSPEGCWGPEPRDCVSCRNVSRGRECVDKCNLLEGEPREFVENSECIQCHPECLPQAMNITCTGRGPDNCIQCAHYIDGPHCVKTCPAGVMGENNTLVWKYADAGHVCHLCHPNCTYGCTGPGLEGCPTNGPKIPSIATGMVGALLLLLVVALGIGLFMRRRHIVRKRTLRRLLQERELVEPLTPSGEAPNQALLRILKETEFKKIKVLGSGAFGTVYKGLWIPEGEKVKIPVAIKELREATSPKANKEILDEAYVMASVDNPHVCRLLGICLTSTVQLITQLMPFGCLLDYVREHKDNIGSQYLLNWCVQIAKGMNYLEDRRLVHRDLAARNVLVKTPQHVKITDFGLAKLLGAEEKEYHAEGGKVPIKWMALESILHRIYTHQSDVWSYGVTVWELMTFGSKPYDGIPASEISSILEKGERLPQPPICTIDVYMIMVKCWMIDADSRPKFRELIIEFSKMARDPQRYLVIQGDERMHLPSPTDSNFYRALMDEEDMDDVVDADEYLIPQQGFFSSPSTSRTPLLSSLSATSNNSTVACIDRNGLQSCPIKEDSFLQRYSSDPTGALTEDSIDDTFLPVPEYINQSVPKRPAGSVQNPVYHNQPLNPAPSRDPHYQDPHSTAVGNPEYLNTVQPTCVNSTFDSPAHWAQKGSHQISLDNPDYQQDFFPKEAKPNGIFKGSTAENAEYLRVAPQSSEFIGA

[9] = target: T2, EGFR; assay: EGFR Western blot in HCT116; format: cell-based; settings: for EGFR HCT116 % Inhibition: Western blot at MTT-IC50; for EGFR HCT116 RQ (relative quantification): Western blot at MTT-IC50, control RQ 4.0382
[10] = target: T3, COX-1 (Ovis aries, UniProt P05979); assay: COX-1 inhibitor screening kit; format: biochemical
T3 sequence (P05979 25-600): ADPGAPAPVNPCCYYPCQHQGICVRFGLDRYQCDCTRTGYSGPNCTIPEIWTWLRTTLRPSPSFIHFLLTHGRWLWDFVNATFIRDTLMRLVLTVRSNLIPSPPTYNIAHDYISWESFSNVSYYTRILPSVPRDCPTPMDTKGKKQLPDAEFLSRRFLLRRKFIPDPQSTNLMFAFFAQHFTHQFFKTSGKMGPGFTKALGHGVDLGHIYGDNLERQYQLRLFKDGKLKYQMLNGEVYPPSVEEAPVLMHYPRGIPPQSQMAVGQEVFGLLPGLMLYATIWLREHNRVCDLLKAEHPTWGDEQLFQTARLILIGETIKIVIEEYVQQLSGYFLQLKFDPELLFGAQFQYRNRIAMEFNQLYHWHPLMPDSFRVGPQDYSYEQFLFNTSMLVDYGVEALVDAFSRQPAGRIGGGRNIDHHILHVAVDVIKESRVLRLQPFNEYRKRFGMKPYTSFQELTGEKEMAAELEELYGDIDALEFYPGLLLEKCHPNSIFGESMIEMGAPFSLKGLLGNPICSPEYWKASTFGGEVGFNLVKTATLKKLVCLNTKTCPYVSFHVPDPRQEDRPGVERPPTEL

[11] = target: T4, COX-2 (Homo sapiens, UniProt P35354); assay: COX-2 inhibitor screening kit; format: biochemical
T4 sequence (P35354 18-604): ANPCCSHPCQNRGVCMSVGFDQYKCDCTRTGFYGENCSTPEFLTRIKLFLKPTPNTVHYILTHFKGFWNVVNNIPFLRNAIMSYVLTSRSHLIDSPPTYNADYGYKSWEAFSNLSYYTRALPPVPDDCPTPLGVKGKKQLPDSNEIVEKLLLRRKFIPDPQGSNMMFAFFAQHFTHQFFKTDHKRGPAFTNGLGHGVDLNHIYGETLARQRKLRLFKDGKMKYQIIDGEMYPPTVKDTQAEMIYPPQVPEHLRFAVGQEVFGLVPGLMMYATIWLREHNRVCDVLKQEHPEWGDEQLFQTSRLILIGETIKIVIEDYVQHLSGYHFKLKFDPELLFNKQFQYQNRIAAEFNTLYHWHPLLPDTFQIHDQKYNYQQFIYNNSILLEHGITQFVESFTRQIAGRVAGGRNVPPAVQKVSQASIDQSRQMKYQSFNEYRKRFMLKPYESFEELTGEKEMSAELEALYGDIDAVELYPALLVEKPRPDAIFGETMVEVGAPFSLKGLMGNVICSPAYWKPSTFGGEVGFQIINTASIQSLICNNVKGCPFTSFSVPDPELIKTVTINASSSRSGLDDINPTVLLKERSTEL

SMILES | SI = CC50/IC50 [1] | IC50 [2] [nM] | SI (selectivity index), A431 [2] | IC50 [3] [nM] | SI (selectivity index), MCF7 [3] | IC50 [4] [nM] | SI (selectivity index), HCT116 [4] | IC50 [5] [nM] | VEGFR2 MCF7 % Inhibition [6] [%] | VEGFR2 MCF7 RQ (relative quantification) [6] | VEGFR2 HCT116 % Inhibition [7] [%] | VEGFR2 HCT116 RQ (relative quantification) [7] | EGFR MCF7 % Inhibition [8] [%] | EGFR MCF7 RQ (relative quantification) [8] | EGFR HCT116 % Inhibition [9] [%] | EGFR HCT116 RQ (relative quantification) [9] | IC50 [10] [nM] | IC50 [11] [nM] | SI = IC50(COX-1)/IC50(COX-2) [11]
CCN(CCO)CCCC(C)Nc1ccnc2cc(Cl)ccc12 (stereo not shown) [Hydroxychloroquine, reference compound] | 9.7 | – | – | – | – | – | – | – | – | – | – | – | – | – | – | – | – | – | –
CC(=O)Oc1ccccc1C(=O)N1C/C(=C\c2ccc(F)cc2)C(=O)/C(=C/c2ccc(F)cc2)C1 [Compound 5b, 2-[3,5-Bis((E)-4-fluorobenzylidene)-4-oxopiperidine-1-carbonyl]phenyl acetate] | 22.7 | 2120 ± 190 | 3.9 | 5760 ± 470 | 1.44 | 5100 ± 510 | 1.63 | 8300 ± 710 | 57.0 | 1.6 | 70.9 | 1.11 | 83.7 | 0.69 | 72.8 | 1.1 | 146 | 442 | 0.330
CC(=O)Oc1ccccc1C(=O)N1C/C(=C\c2ccc(Br)cc2)C(=O)/C(=C/c2ccc(Br)cc2)C1 [Compound 5d, 2-[3,5-Bis((E)-4-bromobenzylidene)-4-oxopiperidine-1-carbonyl]phenyl acetate] | 54.7 | 986 ± 80 | 9.8 | 4580 ± 390 | 2.11 | 3600 ± 290 | 2.69 | 9680 ± 570 | 48.7 | 1.91 | 60.7 | 1.5 | 64.0 | 1.52 | 65.9 | 1.377 | 134 | 1110 | 0.121
COc1ccc(/C=C2\CN(C(=O)c3ccccc3OC(C)=O)C/C(=C\c3ccc(OC)cc3)C2=O)cc1 [Compound 5f, 2-[3,5-Bis((E)-4-methoxybenzylidene)-4-oxopiperidine-1-carbonyl]phenyl acetate] | 1.2 | 6040 ± 620 | 1.6 | 5380 ± 510 | 1.84 | 6080 ± 490 | 1.63 | 9890 ± 660 | 58.1 | 1.56 | 64.1 | 1.37 | 76.3 | 1 | 62.5 | 1.516 | 147 | 315 | 0.467
CC(=O)Oc1ccc(Cl)cc1C(=O)N1C/C(=C\c2ccc(Br)cc2)C(=O)/C(=C/c2ccc(Br)cc2)C1 [Compound 5l, 2-[3,5-Bis((E)-4-bromobenzylidene)-4-oxopiperidine-1-carbonyl]-4-chlorophenyl acetate] | 11.1 | 667 ± 70 | 10.8 | 4150 ± 370 | 1.74 | 1150 ± 130 | 6.27 | 7230 ± 490 | 70.5 | 1.1 | 76.4 | 0.9 | 66.9 | 1.4 | 66.9 | 1.336 | 590 | 1010 | 0.582
CC(=O)Oc1ccccc1C(=O)N1C/C(=C\c2cccs2)C(=O)/C(=C/c2cccs2)C1 [Compound 5i, 2-[(3E,5E)-4-Oxo-3,5-bis(thiophen-2-ylmethylene)piperidine-1-carbonyl]phenyl acetate] | 125.6 | 2150 ± 150 | 8.8 | 5580 ± 520 | 3.41 | 9260 ± 610 | 2.06 | 19000 ± 990 | 46.3 | 2.000 | 39.8 | 2.297 | 63.6 | 1.540 | 61.3 | 1.564 | 455 | 772 | 0.589
CCN(CC)CCCC(C)Nc1ccnc2cc(Cl)ccc12 (stereo not shown) [Chloroquine, reference compound] | 15.1 | – | – | – | – | – | – | – | – | – | – | – | – | – | – | – | – | – | –
COc1cc(/C=C2\CN(C(=O)c3ccccc3OC(C)=O)C/C(=C\c3cc(OC)c(OC)c(OC)c3)C2=O)cc(OC)c1OC [Compound 5h, 2-[4-Oxo-3,5-bis((E)-3,4,5-trimethoxybenzylidene)piperidine-1-carbonyl]phenyl acetate] | 35.0 | 472 ± 20 | 18.3 | 3990 ± 360 | 2.16 | 1330 ± 90 | 6.47 | 8620 ± 720 | 45.4 | 2.032 | 37.2 | 2.398 | 58.9 | 1.737 | 57.9 | 1.698 | 147 | 438 | 0.336
CC(=O)Oc1ccccc1C(=O)N1C/C(=C\c2ccc(C)cc2)C(=O)/C(=C/c2ccc(C)cc2)C1 [Compound 5e, 2-[3,5-Bis((E)-4-methylbenzylidene)-4-oxopiperidine-1-carbonyl]phenyl acetate] | 37.4 | 639 ± 70 | 15.5 | 6000 ± 500 | 1.65 | 2560 ± 180 | 3.87 | 9890 ± 750 | 40.9 | 2.202 | 42.1 | 2.209 | 59.6 | 1.707 | 58.8 | 1.664 | 249 | 1560 | 0.160
O=c1[nH]cc(F)c(=O)[nH]1 [Compound 5-FU, 5-fluorouracil, reference compound] | – | – | – | – | – | – | – | – | 67.2 | – | 75.4 | – | 85.8 | – | 81.2 | – | – | – | –
